# Like-named read-outs stand apart in the source and are kept apart here.
# Columns and labels:
# [1] = system: AIDS virus; settings: cited from earlier work
# [2] = system: SAH hydrolase; test: SAH hydrolase inhibition; assay type: biochemical
# Protocol: The effect of incubation time and AICA riboside concentration on SAH hydrolase activity was determined as follows. Five samples of SAH hydrolase were incubated at the following AICA riboside concentrations: 0, 10, 25, 50 and 100 μM. The incubation buffer consisted of 25 mM potassium phosphate pH 7.0, 1 mM EDTA, 1 mM, DTT and 0.04% BSA. The total enzyme added to incubation mixture was 10 μg. At indicated times, 10 μl of sample was withdrawn and assayed in the following assay system: 25 mM potassium phosphate, pH 7.0, 40 mM DL-Homocysteine, 1 mM EDTA, 1 mM DTT, 10 μM EHNA, 0.1% BSA and 10 μM U-^14 C Adenosine (590 m Ci/mmole). The reaction was stopped by adding 15 μl of 30% TCA. The samples were then centrifuged and 15 μl were removed and applied to Kodak cellulose 13254 TLC plates along with SAH and adenosine markers. The plates were then developed in a solvent system of 1-butanol:methanol:H2 O:ammonium hydroxide (60:20:20:2). The adenosine and S-adenosyl homocysteine were visualized under UV light and the spots were cut from the plate. Radioactivity of the spots was determined by liquid scintillation spectrometry. From a plot of the reciprocal of Kinactivation vs. 1/AICA riboside concentration the values of Ki (X-intercept) and Kmax (Y-intercept), were determined (FIG. 10(b)).
# [3] = system: peripheral blood macrophages; settings: cited from earlier work
# [4] = system: HIV; test: HIV syncitial forming assay using SupT-1 cells; assay type: cell-based
# Protocol: The assay was performed following the procedure described in Example Three except that SupT-1 cells were used. Using the SupT-1 cells, the medium was not changed at day 5 post-infection and the syncitia were counted at day 5 post-infection at 40X. The results are plotted in FIGS. 5, 6(b), and 7.
# [5] = system: HIV-1; test: HIV syncitial forming assay using CEM-SS cells; assay type: cell-based; settings: AZT 0.01 μM and 0.1 μM, 24 hour preincubation before HIV infection
# Source text: The following cytomorphologic infectivity bioassay was used to characterize antiviral activity against HIV-1. In the following assay a single infectious unit of virus infects a single cell and initiates a focal expression of that infection, i.e., a syncitium. Since a single infectious unit leads to a discrete response, a linear relationship exists between the number of virally-induced cytopathic effects and the first order of virus concentration. Application of this procedure in assays for virus inactivation allows for evaluation of the candidate antiviral agent.
# CEM-SS (syncitium-sensitive Leu 3a-positive CEM cell line) cells were grown in RPMI 1640 cell culture media (Irvine Scientific) supplemented with 10% heat-inactivated fetal bovine serum (Gemini Bioproducts) and 1% […] glutamine (Gibco). Log-phase cells were split 1:2 with the growth medium the day prior to setting up the assay to standardize plating conditions and to assure a population of logarithmically growing cells. Ninety-six-well plates (Costar) were pretreated with 50 μl of 50 μg/ml poly-1-lysine (MW=295,000 Sigma) "PLL") and were left at room temperature for 60 minutes. Residual PLL was removed with two washes of PBS. The plates were stored in the incubator until used.
# On the day of the assay, the cells were counted and enough cells were harvested to plate each well with 5.0×10^4 cells per well in a volume of 200 μl (or 20 ml of […] was appropriate for each 96-well microtitre plate).
# The cells were plated out on the PLL pre-treated microtitre plates at 5.0×10^4 cells/well in a volume of 200 μl. After allowing attachment for 30 minutes at 37° C. and 5% CO2, the antiviral agent(s) were added in the noted amounts and the treated plates were pre-incubated for 24 hours.
# The HIV-1 virus stock (isolated from infected H-9 cells) was diluted in growth medium to yield 100 SFU (syncytial-forming units) per well. Diluted HIV-1 virus, 20 μl, was added to appropriate wells. All the plates were then incubated for 5 days at 37° C. and 5% CO2. On day 5 post-infection, the cells were given a 100 μl media change. […]
# [6] = system: BAG vector pseudotyped by MA (amphotrophic murine leukemia virus); test: U937/BAG+MA colony resistance assay titered on 208F rat fibroblasts; assay type: cell-based; settings: 0.01 μM AZT
# Protocol: A second, similar assay system was utilized in which a human macrophage line (U937) carrying the BAG retroviral vector construct (having neomycin resistance and beta-galactosidase marker genes), Cepko, PNAS, Vol. 84, p. 156-160 (1987), was infected with MA (amphotrophic MLV [murine leukemia virus]). MA was used to pseudotype the replication-defective BAG vector, which was then titered on 208F cells. According to this assay, the results of which are shown in FIG. 1c, 0.01 μM AZT and 500 μM AICA riboside were both effective against murine retroviruses. […]
# (§1) In this colony-forming bioassay for the characterization of antiviral compounds against retroviruses, a replication-defective retroviral vector construct having the ability to confer neomycin-resistance (U937/BAG or N2) is psuedotyped, infects a single cell, and under neomycin selection, allows the recipient cell to form a colony. Since each infection yields a neomycin-resistant cell capable of producing a discrete group of cells, colonies can be counted, resulting in a linear relationship between the number of colonies and the first order of virus concentration. […]
# After drying, the plates were stained with 2 ml of 1:20 Glemsa (Sigma) for 1 hour. […] All colonies containing 50 or more cells were scored.
# [7] = cited from earlier work
# [8] = system: N2 virus (replication-defective murine leukemia virus construct); test: N2 colony resistance assay on 208F rat fibroblasts; assay type: cell-based; settings: 0.01 μM AZT compared with 500 μM AICA riboside
# Source text: As described in Example Two, several retroviral assay systems were utilized to test the antiviral activity of various purine nucleoside compounds. One assay system employed a replication-defective murine leukemia virus construct "N2") containing a selectable marker (the neomycin resistance gene). The N2 virus construct is present in the producer or "helper" cell line also called N2 which contains a second retroviral construct that encodes for the production of the retrovirus proteins necessary for packaging and which can, therefore, psuedotype the N2 vector into an infective amphotrophic murine retrovirus. […]
# as §1
# Neomycin selection (500 μg/ml) was begun the next day and continued for eight days post-infection, changing the media three times per week. […] All colonies with 50 or more aggregate cells were counted.
compound,measurement,setting,value
NC(=O)c1ncn([C@@H]2O[C@H](CO)[C@@H](O)[C@H]2O)n1 [ribavirin],"decrease of phosphorylation of AZT to the mono-, di-, and triphosphate forms",[1]; AIDS infected and uninfected cells,approximately a factor of ten
same,effect on effectiveness of AZT against the AIDS virus,[1]; peripheral blood lymphocytes and H9 cells,reduced the effectiveness of AZT
NC(=O)c1nc[nH]c1N [AICA],inhibition of SAH hydrolase,[2],very potent inhibitors
same,inhibition of SAH hydrolase,[2]; even at a concentration as low as 10 μM,potent inhibitors
"Cc1cn([C@H]2C[C@H](N=[N+]=[N-])[C@@H](CO)O2)c(=O)[nH]c1=O [AZT, 3'azido-3'deoxythymidine]",accumulation of AZT nucleotides in macrophages as compared to CEM,[3],nine-fold lower
same,effectiveness against the AIDS virus (prevention of syncitial formation),"[4]; AZT 0.01 μM-1 μM, 7200 min",less than 100%
same,inhibition at 10 µM,"[4]; Human immunodeficiency virus 1, SUP-T1, 120 h, read-out: effectiveness against the AIDS virus (prevention of syncitial formation)",100%
same,antiviral effect (number of syncitia),[5],antiviral effects
same,effectiveness against murine retroviruses,[6],effective
same,patients with macrocytic anemia,[7]; CD4 (T4) lymphocyte count ≤200/mm^3,up to 45%
same,patients with granulocytopenia,[7]; CD4 count >200/mm^3,up to 40%
same,patients with granulocytopenia,[7]; CD4 count ≤200/mm^3,up to 55%
same,antiviral activity (neomycin-resistant colonies),[8],somewhat better antiviral activity than 500 μM AICA riboside

# — patent US5132291A, “Antivirals and methods for increasing the antiviral activity of AZT” (priority 1989, dated 1992)
